{"source": "patent US4478849A", "about": "“Secondary amines, their preparation and use in pharmaceutical compositions” (Beecham Group Limited, priority 1978, dated 1984)", "key": {"[1]": {"tested_on": "blood glucose", "assay": "hypoglycaemic activity: reduction in area under blood glucose curve after glucose load in fasted mice", "format": "in vivo, female CFLP mice", "conditions": "for inhibition in vivo at 5 mg/kg: Mus musculus, po, 2 h; for anti-hyperglycaemic activity (in words): general statement, no dose given", "method": "Female CFLP mice, weighing approximately 25 g, were fasted for 24 hours prior to the study. The compounds under study were dosed orally (20 mg and 5 mg/kg) to each of 8 mice. 30 minutes later a blood sample ([…]) was obtained from the tail for the analysis of blood glucose. Immediately after taking this blood sample, each mouse was given a glucose load (1 g/kg body weight sub-cutaneously). Blood samples were then obtained from each mouse at 30 minute intervals for 120 minutes.\nCompounds that produced a significant (P<0.05) reduction of blood glucose, compared with control mice given water, at any time interval were considered active. The area under the blood glucose curve over the 2 hour period after giving the glucose load was calculated for each compound and compared with the value for control animals. Thus a compound would give a 100% reduction in the area under the blood glucose curve if the blood glucose was maintained at the same level as in untreated fasted animals. Reduction in the glucose curve of more than 100% indicate that a compound, in spite of being given a glucose load, maintained blood glucose levels below that found in control fasted mice."}, "[2]": {"tested_on": "genetically obese mice", "assay": "carcass lipid of genetically obese mice after daily oral dosing for 28 days (anti-obesity)", "format": "in vivo, mouse (genetically obese)", "conditions": "for g - lipid per mouse, Treated: daily for 28 days; for anti-obesity activity (in words): general statement, no dose given", "method": "(i) The compounds and a comparison compound (salbutamol) were dosed daily in water or carboxymethylcellulose suspension to genetically obese mice by oral gavage for 28 days. At the end of that time the carcass composition was determined."}, "[3]": {"conditions": "5 mg/kg po, 30 min before glucose load 1 g/kg sc, 2 hour period, versus control mice"}, "[4]": {"conditions": "10 mg/kg po, control 18.3 ± 0.6 (Ex. 7), 16.5 ± 0.7 (Ex. 16, 21)"}}}
{"smiles": "COC(=O)c1ccc(CC(C)NCC(O)c2ccc(O)c(CO)c2)cc1", "note": "(stereo not shown) [21 (mp 140.5-143.5°), N-[2-(4-carbomethoxyphenyl)-1-methylethyl]-2-hydroxy-2-(4-hydroxy-3-hydroxymethylphenyl) ethanamine]", "values": [{"measurement": "Reduction in area under blood glucose curve (%)", "setting": "[1]; [3]", "value": 153, "unit": "%"}, {"measurement": "g - lipid per mouse, Treated", "setting": "[2]; [4]", "value": "12.7 ± 0.8", "unit": "g"}]}
{"smiles": "COC(=O)c1ccc(CCC(C)NCC(O)c2ccc(O)c(CO)c2)cc1", "note": "(stereo not shown) [Example 7]", "values": [{"measurement": "inhibition in vivo at 5 mg/kg", "setting": "[1]; [3]", "value": 110, "unit": "%"}, {"measurement": "anti-hyperglycaemic activity (in words)", "setting": "[1]", "value": "particularly worthy of mention in view of their anti-hyperglycaemic activity"}, {"measurement": "g - lipid per mouse, Treated", "setting": "[2]; [4]", "value": "14.3 ± 0.4", "unit": "g"}, {"measurement": "anti-obesity activity (in words)", "setting": "[2]", "value": "particularly worthy of mention in view of their anti-obesity activity"}]}
{"smiles": "COC(=O)c1ccc(CC(C)NCC(O)c2ccc(O)c(CO)c2)c(OC)c1", "note": "(stereo not shown) [Example 12, N-[2-(4-Carbomethoxy-2-methoxyphenyl)-1-methylethyl]-2-hydroxy-2-(4-hydroxy-3-hydroxymethylphenyl)ethanamine]", "values": [{"measurement": "inhibition in vivo at 5 mg/kg", "setting": "[1]; [3]", "value": 168, "unit": "%"}, {"measurement": "anti-hyperglycaemic activity (in words)", "setting": "[1]", "value": "particularly worthy of mention in view of their anti-hyperglycaemic activity"}, {"measurement": "g - lipid per mouse, Treated", "setting": "[2]; 11 mg/kg po, control 18.9 ± 0.66 (Ex. 12), 17.0 ± 0.67 (Ex. 17)", "value": "16.2 ± 0.42", "unit": "g"}, {"measurement": "anti-obesity activity (in words)", "setting": "[2]", "value": "particularly worthy of mention in view of their anti-obesity activity"}]}
{"smiles": "COC(=O)c1ccc(CC(C)NCC(O)c2ccc(O)c(CO)c2)cc1C", "note": "(stereo not shown) [Example 14, N-[2-(4-Carbomethoxy-3-methylphenyl)-1-methylethyl]-2-hydroxy-2-(4-hydroxy-3-hydroxymethylphenyl)ethanamine]", "values": [{"measurement": "g - lipid per mouse, Treated", "setting": "[2]; 10.5 mg/kg po, control 17.0 ± 0.67", "value": "14.3 ± 0.61", "unit": "g"}, {"measurement": "anti-obesity activity (in words)", "setting": "[2]", "value": "particularly worthy of mention in view of their anti-obesity activity"}]}
{"smiles": "CCOC(=O)c1ccc(CC(C)NCC(O)c2ccc(O)c(CO)c2)cc1", "note": "(stereo not shown) [Example 16, N-[2-(4-Carboethoxyphenyl)-1-methylethyl]-2-hydroxy-2-(4-hydroxy-3-hydroxymethylphenyl) ethanamine]", "values": [{"measurement": "g - lipid per mouse, Treated", "setting": "[2]; [4]", "value": "12.9 ± 0.8", "unit": "g"}, {"measurement": "anti-obesity activity (in words)", "setting": "[2]", "value": "particularly worthy of mention in view of their anti-obesity activity"}]}
{"smiles": "COC(=O)c1ccc(CC(C)NCC(O)c2ccccc2)c(Cl)c1", "note": "(stereo not shown) [Example 23, N-(2-[4-Carbomethoxy-2-chlorophenyl]-1-methylethyl)-2-hydroxy-2-phenylethanamine]", "values": [{"measurement": "anti-obesity activity (in words)", "setting": "[2]", "value": "particularly worthy of mention in view of their anti-obesity activity"}]}
{"smiles": "COC(=O)c1ccc(CC(C)NCC(O)c2ccccc2)c(OC)c1", "note": "(stereo not shown) [Example 24, N-(2-[4-Carbomethoxy-2-methoxyphenyl]-1-methylethyl)-2hydroxy-2-phenylethanamine]", "values": [{"measurement": "anti-obesity activity (in words)", "setting": "[2]", "value": "particularly worthy of mention in view of their anti-obesity activity"}]}
{"smiles": "COC(=O)c1ccc(CC(C)(C)NCC(O)c2ccccc2)cc1", "note": "(stereo not shown) [Example 26, N-(2-[4-Carbomethoxyphenyl]-1,1-dimethylethyl)-2-hydroxy-2-phenylethanamine]", "values": [{"measurement": "g - lipid per mouse, Treated", "setting": "[2]; 9 mg/kg po, control 18.9 ± 0.66", "value": "16.4 ± 1.2", "unit": "g"}, {"measurement": "anti-obesity activity (in words)", "setting": "[2]", "value": "particularly worthy of mention in view of their anti-obesity activity"}]}
{"smiles": "COC(=O)c1ccc(C[C@@H](C)NCC(O)c2ccc(O)c(CO)c2)cc1", "note": "(stereo partly drawn) [Example 35, N-(1-(R)-2-[4-Carbomethoxyphenyl]-1-methylethyl)-2-hydroxy-2-(4-hydroxy-3-hydroxymethylphenyl)ethanamine]", "values": [{"measurement": "anti-obesity activity (in words)", "setting": "[2]", "value": "particularly worthy of mention in view of their anti-obesity activity"}]}
{"smiles": "COC(=O)c1ccc(CC(C)NCC(O)c2ccc(O)c(NS(C)(=O)=O)c2)cc1", "note": "(stereo not shown) [Example 37, N-(2-[4-Carbomethoxyphenyl]-1-methylethyl)-2-(4-hydroxy-3-methanesulphonamidophenyl)-2-hydroxyethanamine]", "values": [{"measurement": "anti-obesity activity (in words)", "setting": "[2]", "value": "particularly worthy of mention in view of their anti-obesity activity"}]}
{"smiles": "CC(Cc1ccc(C(=O)O)cc1)NCC(O)c1ccccc1", "note": "(stereo not shown) [Example 44, N-[2-(4-Carboxyphenyl)-1-methylethyl]-2-hydroxy-2-phenylethanamine]", "values": [{"measurement": "anti-obesity activity (in words)", "setting": "[2]", "value": "particularly worthy of mention in view of their anti-obesity activity"}]}
{"smiles": "CC(C)(C)NCC(O)c1ccc(O)c(CO)c1", "note": "(stereo not shown) [Salbutamol, reference compound]", "values": [{"measurement": "g - lipid per mouse, Treated", "setting": "[2]; 25 mg/kg po, control 23.0 ± 0.3", "value": "23.1 ± 0.6", "unit": "g"}]}
